Patent US20250042887A1, “GLYCOGEN SYNTHASE KINASE-3 (GSK3) INHIBITOR COMPOUNDS FOR USE AS ANTIVIRAL AGENTS” (priority 2021, published 2025)
Like-named read-outs stand apart in the source and are kept apart here. Where no end group is shown, it is not given here. [ ]: non-standard residue; d: D form. pT = C[C@@H](OP(=O)(O)O)[C@H](N)C(=O)O; pS = N[C@@H](COP(=O)(O)O)C(=O)O

Tests used:
[1] = test system: Huh-7.5.1 cells; conditions: single dose of 10 μM
Protocol: High content screening methodology and parameters. Monitoring of the total number of cells (based on nuclei staining) and number of virus infected cells (based on dsRNA and Nucleocapsid staining) was performed using the CellInsight CX7™ High Content Screening platform (Thermo Fisher™), as previously described (33042061). Shortly, nuclei are identified and counted using the 350′461 nm wavelength (Hoechst 33342™); cell debris and other particles are deducted based on a size filter tool. A Region of Interest (ROI, or “circle”) is then drawn around each host cell and validated against the bright field image to correspond with host cell membranes. The ROI encompasses the “spots”, where dsRNA (485/521 nm wavelength) and SARS-CoV-2 nucleocapsid (533/588 nm wavelength) are localized. Finally, the software (HCS Studio Cell Analysis Software™, version 4.0) identifies, counts and measures the pixel area and intensity of the spots within each circle. The fluorescent spot area measured within each cell (circle) is then added and quantified for each well. The total circle spot intensity of each well corresponds to the viral load, and is normalized to non-infected cells, and to cells infected with no compound. Nuclei stain (Hoechst 33342™) was used to quantify cell loss (due to cytotoxicity or loss of adherence), and to normalize the changes in viral load resulting from a decrease in cell numbers.

[2] = test system: SARS-CoV-2; assay: High-content screen of GSK3β-focused library in SARS-CoV-2 infected Huh-7.5.1 cells (dsRNA or nucleocapsid); assay type: cell-based; conditions: for inhibition at 10 µM: Severe acute respiratory syndrome coronavirus 2, single dose of 10 μM, Huh-7.5.1 cells; for Activity (SARS-CoV-2): see TABLE A
[3] = test system: HCoV-229E; assay: High-content screen of GSK3β-focused library in HCoV-229E infected Huh-7.5.1 cells (intracellular dsRNA); assay type: cell-based, human coronavirus 229E (HCoV-229E); conditions: Human coronavirus 229E, single dose of 10 μM, Z′ 0.7
[4] = test system: HCoV-229E; assay: Dose-response of HCoV-229E viral load (dsRNA) in Huh-7.5.1 cells; assay type: cell-based, human coronavirus 229E (HCoV-229E); conditions: Human coronavirus 229E, read-out: ED50 (HCoV-229E)
[5] = test system: SARS-CoV-2; assay: Dose-response of SARS-CoV-2 viral load (intracellular N protein) in Huh-7.5.1 cells; assay type: cell-based; conditions: Severe acute respiratory syndrome coronavirus 2, Huh-7.5.1, Huh-7.5.1 cells, intracellular N protein; read-out: ED50 (SARS-CoV-2)
[6] = test system: PKCa + GSK3b; assay: In vitro phosphorylation of nucleocapsid peptides, ADP-Glo, PKCa + GSK3b combined; assay type: biochemical, human; conditions: Mean ± S.Dev. (n = 3); no kinase control = 100
[7] = biological target: cAMP-dependent protein kinase catalytic subunit-alpha (PKACa) (Homo sapiens, UniProt P17612); assay: In vitro phosphorylation of nucleocapsid peptides, ADP-Glo, PKACa; assay type: biochemical; conditions: peptide ~250 μM, 250 μM ATP, 30 min at 30° C.; duplicate measurements
[8] = biological target: T1, casein kinase 2-alpha-1 (CK2a1) (Homo sapiens, UniProt P68400); assay: In vitro phosphorylation of nucleocapsid peptides, ADP-Glo, CK2a1; assay type: biochemical; conditions: peptide ~250 μM, 250 μM ATP, 30 min at 30° C.; duplicate measurements
T1 construct: GST; purchased SignalChem C70-10G

[9] = biological target: T2, protein kinase C-alpha (PKC α) (Homo sapiens, UniProt P17252); assay: In vitro phosphorylation of nucleocapsid peptides, ADP-Glo, PKCa; assay type: biochemical; conditions: for Relative Phosphorylation to No Kinase Control, PKCa: Mean ± S.Dev. (n = 3), no kinase control = 100; for Relative Phosphorylation to Autophosphorylation Control (set at 100), PKCa: peptide ~250 μM, 250 μM ATP, 30 min at 30° C., duplicate measurements
T2 construct: GST; purchased SignalChem P61-18G

[10] = biological target: T3, glycogen synthase kinase-3-beta (Homo sapiens, UniProt P49841); assay: In vitro phosphorylation of nucleocapsid peptides, ADP-Glo, GSK3b; assay type: biochemical; conditions: for Relative Phosphorylation to No Kinase Control, GSK3b: Mean ± S.Dev. (n = 3), no kinase control = 100; for Relative Phosphorylation to Autophosphorylation Control (set at 100), GSK3b: peptide ~250 μM, 250 μM ATP, 30 min at 30° C., duplicate measurements
T3 construct: GST; purchased SignalChem Go9-10G

[11] = test system: SARS-CoV-2; design: effect on N protein phosphorylation and SARS-CoV-2 replication: dose or concentration left out as unconfirmed; conditions: cited from earlier work
[12] = biological target: T4, extracellularly-regulated kinase-1 (ERK1) (Homo sapiens, UniProt P27361); assay: In vitro phosphorylation of nucleocapsid peptides, ADP-Glo, ERK1; assay type: biochemical; conditions: peptide ~250 μM, 250 μM ATP, 30 min at 30° C.; duplicate measurements
T4 construct: GST; purchased SignalChem M29-10G

[13] = biological target: cyclin-dependent kinase 2/cyclin A2 (CDK2/A2) (Homo sapiens, UniProt P24941); assay: In vitro phosphorylation of nucleocapsid peptides, ADP-Glo, CDK2/cyclin A2; assay type: biochemical; conditions: peptide ~250 μM, 250 μM ATP, 30 min at 30° C.; duplicate measurements
[14] = biological target: T5, casein kinase 1-alpha-1 (CK1a1) (Homo sapiens, UniProt P48729); assay: In vitro phosphorylation of nucleocapsid peptides, ADP-Glo, CK1a1; assay type: biochemical; conditions: peptide ~250 μM, 250 μM ATP, 30 min at 30° C.; duplicate measurements
T5 construct: GST; purchased SignalChem C64-10G

[15] = biological target: T6, casein kinase 1-delta (Homo sapiens, UniProt P48730); assay: In vitro phosphorylation of nucleocapsid peptides, ADP-Glo, CK1d; assay type: biochemical; conditions: peptide ~250 μM, 250 μM ATP, 30 min at 30° C.; duplicate measurements
T6 construct: GST; purchased SignalChem C65-10G

[16] = Z′ 0.3, read-out: SARS-CoV-2 inhibition (% dsRNA)
[17] = average of screens 1 and 2, read-out: Average SARS-CoV-2 Nucleocapsid inhibition
[18] = screen 1, Z′ 0.7, read-out: SARS-CoV-2 inhibition (% Nucleocapsid) 1
[19] = screen 2, Z′ 0.5, read-out: SARS-CoV-2 inhibition (% Nucleocapsid) 2

T3 sequence (P49841 whole entry): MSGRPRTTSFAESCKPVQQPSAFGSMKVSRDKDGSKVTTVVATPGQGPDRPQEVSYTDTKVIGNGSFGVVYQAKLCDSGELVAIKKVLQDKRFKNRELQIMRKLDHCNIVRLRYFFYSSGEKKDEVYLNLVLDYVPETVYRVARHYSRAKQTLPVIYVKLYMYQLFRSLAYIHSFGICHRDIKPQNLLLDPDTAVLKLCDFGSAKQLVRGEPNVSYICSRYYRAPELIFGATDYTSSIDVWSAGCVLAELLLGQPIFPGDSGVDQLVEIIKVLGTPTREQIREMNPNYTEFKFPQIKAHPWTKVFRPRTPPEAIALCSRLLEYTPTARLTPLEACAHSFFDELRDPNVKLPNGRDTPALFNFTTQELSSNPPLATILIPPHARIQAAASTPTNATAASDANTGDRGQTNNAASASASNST
T1 sequence (P68400 whole entry): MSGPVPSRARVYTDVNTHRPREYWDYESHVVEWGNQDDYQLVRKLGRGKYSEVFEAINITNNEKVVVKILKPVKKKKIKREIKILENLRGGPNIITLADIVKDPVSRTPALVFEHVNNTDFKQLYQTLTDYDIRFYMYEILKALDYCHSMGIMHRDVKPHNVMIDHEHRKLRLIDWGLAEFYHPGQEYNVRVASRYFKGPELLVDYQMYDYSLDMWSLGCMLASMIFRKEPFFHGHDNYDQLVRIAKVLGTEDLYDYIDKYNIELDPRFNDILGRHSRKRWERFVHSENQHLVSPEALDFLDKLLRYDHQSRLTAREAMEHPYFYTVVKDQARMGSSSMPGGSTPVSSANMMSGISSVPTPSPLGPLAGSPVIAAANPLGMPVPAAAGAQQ
T4 sequence (P27361 whole entry): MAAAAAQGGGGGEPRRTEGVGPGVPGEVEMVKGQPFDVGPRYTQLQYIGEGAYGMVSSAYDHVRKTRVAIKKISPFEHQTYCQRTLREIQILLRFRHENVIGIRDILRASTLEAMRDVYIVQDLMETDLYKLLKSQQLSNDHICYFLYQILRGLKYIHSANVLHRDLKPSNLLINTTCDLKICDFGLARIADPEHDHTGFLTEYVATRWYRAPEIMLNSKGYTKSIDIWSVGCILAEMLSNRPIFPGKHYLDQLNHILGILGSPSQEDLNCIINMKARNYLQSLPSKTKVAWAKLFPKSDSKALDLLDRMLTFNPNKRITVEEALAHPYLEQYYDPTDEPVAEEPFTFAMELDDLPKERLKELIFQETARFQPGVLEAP
T5 sequence (P48729 whole entry): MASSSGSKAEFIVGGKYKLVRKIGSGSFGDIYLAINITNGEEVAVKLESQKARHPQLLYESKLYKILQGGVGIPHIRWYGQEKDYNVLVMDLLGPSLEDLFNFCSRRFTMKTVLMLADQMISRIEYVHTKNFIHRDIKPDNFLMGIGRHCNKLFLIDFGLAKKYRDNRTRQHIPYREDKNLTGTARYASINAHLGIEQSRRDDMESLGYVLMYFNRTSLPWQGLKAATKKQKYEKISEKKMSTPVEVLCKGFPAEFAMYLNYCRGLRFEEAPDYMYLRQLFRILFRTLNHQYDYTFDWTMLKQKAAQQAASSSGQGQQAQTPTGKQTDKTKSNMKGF
T6 sequence (P48730 whole entry): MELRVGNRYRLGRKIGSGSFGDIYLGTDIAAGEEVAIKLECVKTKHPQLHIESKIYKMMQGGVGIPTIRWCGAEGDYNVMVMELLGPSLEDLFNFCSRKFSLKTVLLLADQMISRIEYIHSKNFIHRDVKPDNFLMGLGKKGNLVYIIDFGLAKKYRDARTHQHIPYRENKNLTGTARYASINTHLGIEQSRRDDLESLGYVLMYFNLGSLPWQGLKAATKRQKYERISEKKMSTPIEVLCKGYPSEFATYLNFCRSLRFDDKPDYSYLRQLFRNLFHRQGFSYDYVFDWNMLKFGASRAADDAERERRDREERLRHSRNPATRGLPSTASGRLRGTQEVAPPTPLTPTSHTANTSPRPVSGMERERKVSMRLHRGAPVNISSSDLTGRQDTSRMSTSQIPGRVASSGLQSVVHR

Cc1nnc(-c2ccc3occ(-c4ccc([S+](C)[O-])c(OC(F)(F)F)c4)c3c2)o1 (centres unmarked) [Compound P-5782442]
Average cell loss (%) [1]: 16.1%
inhibition at 10 µM [2, 16]: 100%
inhibition at 10 µM [2, 17]: 93.8%
inhibition at 10 µM [2, 18]: 93.3%
inhibition at 10 µM [2, 19]: 94.4%
Activity (SARS-CoV-2) [2]: active (see TABLE A)
inhibition at 10 µM [3]: 60%

C[S+]([O-])c1ccc(-c2coc3ccc(-c4nnc(SCc5cccc(F)c5)o4)cc23)cc1 (centres unmarked) [Compound P-7657632]
EC50 [4]: ~3 µM
EC50 [5]: ~3 µM
Average cell loss (%) [1]: 25.4%
inhibition at 10 µM [2, 16]: 100%
inhibition at 10 µM [2, 17]: 93.1%
inhibition at 10 µM [2, 18]: 100%
inhibition at 10 µM [2, 19]: 86.2%
inhibition at 10 µM [3]: 100%

O=C(NCc1ccccn1)Nc1cc(N2CC(CCc3ccccc3)CC2=O)ccn1 (centres unmarked) [Compound P-4423632]
Average cell loss (%) [1]: 12.0%
inhibition at 10 µM [2, 16]: 100%
inhibition at 10 µM [2, 17]: 95.2%
inhibition at 10 µM [2, 18]: 98%
inhibition at 10 µM [2, 19]: 92.4%
Activity (SARS-CoV-2) [2]: active (see TABLE A)
inhibition at 10 µM [3]: 43.2%

SQASSRSSSRSRNS [SCV2-N [180-193], synthetic peptide modeled after SARS-CoV-2 nucleocapsid protein phosphorylation sites]
Relative Phosphorylation to No Kinase Control, PKCa + GSK3b [6]: 3836 ± 41
Relative Phosphorylation to Autophosphorylation Control (set at 100), PKACa [7]: 123
Relative Phosphorylation to Autophosphorylation Control (set at 100), CK2a1 [8]: 101
Relative Phosphorylation to No Kinase Control, PKCa [9]: 16,366 ± 261
Relative Phosphorylation to Autophosphorylation Control (set at 100), PKCa [9]: 1278
Relative Phosphorylation to No Kinase Control, GSK3b [10]: 2407 ± 23
Relative Phosphorylation to Autophosphorylation Control (set at 100), GSK3b [10]: 102

Cn1cc(C2=C(c3cn(C4CCN(Cc5ccccn5)CC4)c4ccccc34)C(=O)NC2=O)c2ccccc21 [Enzastaurin]
effect on infection ([11]; A549-ACE2 human lung cancer-derived cell line and Vero E6 cells, reference [7]): reduced infection
effect on N protein phosphorylation and SARS-CoV-2 replication ([11]; reference [7]): blocked N protein phosphorylation and SARS-CoV-2 replication

COc1ccc(-n2cnc3ccc(-c4nnc(SCc5cccc(C#N)c5)o4)cc32)cc1 [Compound P-0780332]
Average cell loss (%) [1]: 9.2%
inhibition at 10 µM [2, 16]: 0.6%
inhibition at 10 µM [2, 17]: 0%
inhibition at 10 µM [2, 18]: 0%
inhibition at 10 µM [2, 19]: 0%
Activity (SARS-CoV-2) [2]: inactive (see TABLE A)
inhibition at 10 µM [3]: 0%

CSc1ccc(-n2cnc3ccc(-c4nnc(CCc5cccc(C(F)(F)F)c5)o4)cc32)cc1 [Compound P-3817632]
Average cell loss (%) [1]: 12.7%
inhibition at 10 µM [2, 16]: 100%
inhibition at 10 µM [2, 17]: 71.4%
inhibition at 10 µM [2, 18]: 70.8%
inhibition at 10 µM [2, 19]: 72%
Activity (SARS-CoV-2) [2]: active (see TABLE A)
inhibition at 10 µM [3]: 87.7%

SSRSRNSSRNSTPG [SCV2-N [187-200], synthetic peptide modeled after SARS-CoV-2 nucleocapsid protein phosphorylation sites]
Relative Phosphorylation to Autophosphorylation Control (set at 100), ERK1 [12]: 100
Relative Phosphorylation to No Kinase Control, PKCa + GSK3b [6]: 3692 ± 61
Relative Phosphorylation to Autophosphorylation Control (set at 100), PKACa [7]: 485
Relative Phosphorylation to Autophosphorylation Control (set at 100), CK2a1 [8]: 103
Relative Phosphorylation to No Kinase Control, PKCa [9]: 12,687 ± 486
Relative Phosphorylation to Autophosphorylation Control (set at 100), PKCa [9]: 1080
Relative Phosphorylation to Autophosphorylation Control (set at 100), CDK2 + Cyclin A2 [13]: 100
Relative Phosphorylation to Autophosphorylation Control (set at 100), CK1a1 [14]: 145
Relative Phosphorylation to No Kinase Control, GSK3b [10]: 2573 ± 49
Relative Phosphorylation to Autophosphorylation Control (set at 100), GSK3b [10]: 108
Relative Phosphorylation to Autophosphorylation Control (set at 100), CK1d [15]: 100

RGGSQASSRSSSRS [SCV2-N [177-190], synthetic peptide modeled after SARS-CoV-2 nucleocapsid protein phosphorylation sites]
Relative Phosphorylation to No Kinase Control, PKCa + GSK3b [6]: 3572 ± 22
Relative Phosphorylation to Autophosphorylation Control (set at 100), PKACa [7]: 162
Relative Phosphorylation to No Kinase Control, PKCa [9]: 13,714 ± 502
Relative Phosphorylation to Autophosphorylation Control (set at 100), PKCa [9]: 1320
Relative Phosphorylation to No Kinase Control, GSK3b [10]: 2161 ± 63
Relative Phosphorylation to Autophosphorylation Control (set at 100), GSK3b [10]: 107

RGGSQASSRSS(pS)RS (RGGSQASSRSS[pS]RS) [SCV2-N [177-190]-pS188, synthetic peptide modeled after SARS-CoV-2 nucleocapsid protein phosphorylation sites, pre-phosphorylated at S188]
Relative Phosphorylation to Autophosphorylation Control (set at 100), PKACa [7]: 128
Relative Phosphorylation to No Kinase Control, PKCa [9]: 3861 ± 71
Relative Phosphorylation to Autophosphorylation Control (set at 100), PKCa [9]: 389
Relative Phosphorylation to No Kinase Control, GSK3b [10]: 24,585 ± 645
Relative Phosphorylation to Autophosphorylation Control (set at 100), GSK3b [10]: 1209

[Cl-].[Li+] [Lithium chloride]
IC50 ([11]; from reference [7], read-out: IC50 to inhibit N protein phosphorylation and SARS-CoV-2 replication in cells): 10000 µM

SSRSRNSSRNS(pT)PG (SSRSRNSSRNS[pT]PG) [SCV2-N [187-200]-pT198, synthetic peptide modeled after SARS-CoV-2 nucleocapsid protein phosphorylation sites, pre-phosphorylated at T198]
Relative Phosphorylation to Autophosphorylation Control (set at 100), ERK1 [12]: 100
Relative Phosphorylation to Autophosphorylation Control (set at 100), PKACa [7]: 157
Relative Phosphorylation to Autophosphorylation Control (set at 100), CK2a1 [8]: 102
Relative Phosphorylation to No Kinase Control, PKCa [9]: 7032 ± 319
Relative Phosphorylation to Autophosphorylation Control (set at 100), PKCa [9]: 553
Relative Phosphorylation to Autophosphorylation Control (set at 100), CDK2 + Cyclin A2 [13]: 101
Relative Phosphorylation to Autophosphorylation Control (set at 100), CK1a1 [14]: 250
Relative Phosphorylation to No Kinase Control, GSK3b [10]: 23,031 ± 486
Relative Phosphorylation to Autophosphorylation Control (set at 100), GSK3b [10]: 1042
Relative Phosphorylation to Autophosphorylation Control (set at 100), CK1d [15]: 152

SQASSRSSSR(pS)RNS (SQASSRSSSR[pS]RNS) [SCV2-N [180-193]-pS190, synthetic peptide modeled after SARS-CoV-2 nucleocapsid protein phosphorylation sites, pre-phosphorylated at S190]
Relative Phosphorylation to Autophosphorylation Control (set at 100), PKACa [7]: 312
Relative Phosphorylation to Autophosphorylation Control (set at 100), CK2a1 [8]: 100
Relative Phosphorylation to No Kinase Control, PKCa [9]: 4161 ± 66
Relative Phosphorylation to Autophosphorylation Control (set at 100), PKCa [9]: 418
Relative Phosphorylation to No Kinase Control, GSK3b [10]: 2957 ± 3
Relative Phosphorylation to Autophosphorylation Control (set at 100), GSK3b [10]: 111

CSc1ccc(-c2coc3ccc(-c4nnc(N)o4)cc23)cc1Cl [Compound P-9071942]
EC50 [4]: ~3 µM
EC50 [5]: ~3 µM
Average cell loss (%) [1]: 29.9%
inhibition at 10 µM [2, 16]: 100%
inhibition at 10 µM [2, 17]: 94.5%
inhibition at 10 µM [2, 18]: 100%
inhibition at 10 µM [2, 19]: 89.1%
inhibition at 10 µM [3]: 94.2%
